{"source": "patent US20120277281A1", "about": "“POLYNUCLEOTIDES FOR MEDICAL USE” (MAX-DELBRÜCK-CENTRUM FÜR MOLEKULARE MEDIZIN, priority 2009, published 2012)", "type_in_all_cases": "cell-based, human", "key": {"[1]": {"system": "canonical and non-canonical CSF1R transcripts", "test": "RT-PCR of canonical and non-canonical CSF1R transcripts in Reh and Namalwa cells", "details": "single agent", "method": "FIG. 7. Analysis of CSF1R LTR DNA methylation and CBFA2T3 expression. Expression of the transcriptional corepressor CBFA2T3 is lost in HRS cells. (A) Activation of the non-canonical CSF1R transcripts following treatment with TSA and/or 5-aza-dC. The non-HRS cell lines Reh and Namalwa were left untreated or treated with 5-aza-dC, TSA, or 5-aza-dC in combination with TSA. The expression of canonical and non-canonical CSF1R transcripts was analyzed by RT-PCR. The analysis of KM-H2 cells and of GAPDH expression were used as controls. (7A) Analysis of canonical and noncanonical CSF1R transcripts following treatment of Reh and Namalwa cells with TSA and/or 5-aza-dC. […] The expression of both canonical (+720 to +1,325) and noncanonical (−5,090 to +148 and −6152 to −143) CSF1R transcripts was analyzed by RT-PCR. […] GAPDH expression was analyzed as a control. […] (B) Various cell lines and primary CD19^+ human tonsilar B cells were analyzed for expression of CBFA2T3 mRNA by RT-PCR (upper panel) and protein by Western blotting (WB; lower panel) expression. […] Expression of GAPDH and β-actin were analyzed as controls. […] GAPDH and beta-actin expression were analyzed as controls. n.s., non-specific. […] Schematic overview of the regions analyzed for DNA methylation (upper panel) and results of bisulfite pyrosequencing in lymphoma/leukemia cell lines and controls (lower panel). […]"}, "[2]": {"system": "KM-H2 cells", "test": "[3H]-thymidine incorporation in KM-H2 cells after CSF-1 inhibition", "details": "80 μg/ml, pulsed after 24 h", "method": "FIG. 3. HRS cells depend on CSF1R activity. (A) L540Cy cells were left untreated (−) or treated with the indicated amounts rhCSF-1 (closed bars) or the respective control (open bars) under serum reduced conditions (1% FCS). After 48 hours, cells were pulsed with 1 μCi [^3H]-thymidine per well for a further 20 hours, and [^3H]-thymidine incorporation was determined cpm, counts per minute. Data are represented as mean±SD. (3A) [^3H]-thymidine incorporation in L540Cy cells left untreated (−) or treated with the indicated amounts of rhCSF-1 (black bars) or water control (open bars) under serum-reduced conditions (1% FCS) determined after 48 h. Data are represented as means±s.d. […] After 24 hours, cells were pulsed with [^3H]-thymidine incorporation and analyzed as described in (A). […] CSF1R tyrosine phosphorylation was analyzed as described in FIG. 1F. […]\nDNA synthesis was determined by [^3H]-thymidine incorporation assays using standard protocols. The percentage of viable and apoptotic cells was determined by annexin V-FITC/propidium iodide (PI) double-staining (Bender MedSystems) and subsequent FACS analysis.\nWe determined DNA synthesis by [^3H]-thymidine incorporation assays using standard protocols. In case of L540Cy cells (FIG. 1d), after 48 hours, cells were pulsed with 1 μCi [^3H]-thymidine per well for a further 20 hours, and [^3H]-thymidine incorporation was determined. […]"}, "[3]": {"system": "CSF1R", "test": "rhCSF1-induced CSF1R tyrosine phosphorylation in DEL cells (IP, immunoblot)", "details": "preincubation with CSF1R:Fc", "method": "FIG. 9. (A) Analysis of CSF1 mRNA expression by Northern blot in various cell lines, as indicated. Expression of GAPDH was analyzed as a control. Note, that Hodgkin cell lines overexpress two splice variants compared to control cell lines Reh, Namalwa and BL60, which lack CSF1 expression. (B) To test the functionality of the decoy-receptor-like CSF1R:Fc inhibitor, anaplastic large cell lymphoma derived DEL cells, which show an abundant CSF1R expression (Mathas, S. et al., PNAS 106, 5831-5836 (2009)), were left untreated or stimulated with rhCSF1 with or without preincubation with CSF1R:Fc or the respective IgG1:Fc control. Thereafter, IP was performed with a CSF1R-specific antibody or the respective isotype control (IC), and CSF1R tyrosine phosphorylation was detected by immunoblot with antibody to phospho-tyrosine (p-Tyr; upper panel). As a control, the membrane was reprobed with antibody to CSF1R (lower panel). Note, that CSF1R:Fc prevents rhCSF-1 induced CSF1R phosphorylation."}}, "data": [{"compound": "Nc1ncn([C@H]2C[C@H](O)[C@@H](CO)O2)c(=O)n1", "note": "[Compound 5-aza-dC, 5-aza-2′-deoxycytidine]", "values": [{"measurement": "induction of canonical and non-canonical CSF1R transcripts", "setting": "[1]", "value": "weakly induced"}]}, {"compound": "CC(/C=C/C(=O)NO)=C\\[C@@H](C)C(=O)c1ccc(N(C)C)cc1", "note": "[TSA, Trichostatin A]", "values": [{"measurement": "induction of canonical and non-canonical CSF1R transcripts", "setting": "[1]", "value": "weakly induced"}]}, {"compound": "CSF1R:Fc: decoy-receptor-like inhibitor that binds to and neutralizes CSF-1 (329-MR, R&D Systems)", "values": [{"measurement": "[3H]-thymidine incorporation", "setting": "[2]", "value": "strong reduction"}, {"measurement": "rhCSF-1 induced CSF1R phosphorylation", "setting": "[3]", "value": "prevents"}]}]}
